Measured values published in PubChem BioAssay (NCI).
“And” between values parts separate entries of the source, which are not always exact repeats. Identical values can stand only once.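 Five concentrations, 48 hours, 96-well plates. GI50 is the concentration that inhibits growth by half. The concentration for full growth arrest is given as TGI.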

Experiments:
Assay in all cases: NCI anticancer screen, dose series, 48 h
[1] = system: RXF 393 renal
[2] = system: MALME-3M melanoma
[3] = system: HT29 colon
[4] = system: EKVX NSCLC
[5] = system: K-562 leukemia
[6] = system: A549 NSCLC
[7] = system: HCT-15 colon
[8] = system: MCF7 breast
[9] = system: ACHN renal
[10] = system: OVCAR-8 ovarian

In the case of `Cc1cc(N2CCC(N3CCCC3)CC2)nc(/N=C(\N)Nc2ccc(Cl)c(Cl)c2)n1`, the GI50 [1] is reported as 1.62 µM, the TGI [1] is reported as 3.09 µM and the GI50 [2] is reported as 2 µM. The TGI [2] was 3.82 µM, the GI50 [3] was 1.85 µM and the TGI [3] was 3.87 µM. For the same molecule, the GI50 [4] was 1.71 µM, the TGI [4] was 4.4 µM and the GI50 [5] was 2.58 µM. It also gave a TGI [5] of over 100 µM, a GI50 [6] of 1.78 µM and a TGI [6] of 3.42 µM. It also gave a GI50 [7] of 1.64 µM, a TGI [7] of 3.64 µM and a GI50 [8] of 1.29 µM. The TGI [8] was 2.69 µM, the GI50 [9] was 1.71 µM and the TGI [9] was 3.22 µM. It also gave a GI50 [10] of 1.91 µM and a TGI [10] of 3.77 µM.
For `CCn1c(-c2nonc2N)nc2ccccc21`, the GI50 [1] was 16.7 µM, the TGI [1] was over 25 µM and the GI50 [2] was over 25 µM. It also gave a TGI [2] of over 25 µM, a GI50 [3] of over 25 µM and a TGI [3] of over 25 µM. It also gave a GI50 [4] of 20.9 µM, a TGI [4] of over 25 µM and a GI50 [5] of over 25 µM. For the same molecule, the TGI [5] was over 25 µM, the GI50 [6] was over 25 µM and the TGI [6] was over 25 µM. The GI50 [7] was over 25 µM, the TGI [7] was over 25 µM and the GI50 [8] was over 25 µM. The TGI [8] was over 25 µM, the GI50 [9] was over 25 µM and the TGI [9] was over 25 µM. For the same molecule, the GI50 [10] was over 25 µM and the TGI [10] was over 25 µM.
Molecule `CC[C@H](C)[C@H](NC(=O)C12C3C4C1C1C2C3C41NC)C(=O)N(C)[C@H](C[C@@H](OC(C)=O)c1nc(C(=O)N[C@@H](Cc2ccccc2)C[C@H](C)C(=O)OC)cs1)C(C)C` (some centres undefined) has a GI50 [1] of 0.413 µM, a TGI [1] of over 14.3 µM and a TGI [2] of over 14.3 µM. For the same molecule, the GI50 [3] was 0.29 µM, the TGI [3] was over 4.78 µM and the GI50 [4] was 1.67 µM. The TGI [4] was over 14.3 µM, the GI50 [5] was 0.219 µM and the TGI [5] was over 14.3 µM. For the same molecule, the GI50 [6] was 4.61 µM, the TGI [6] was over 14.3 µM and the GI50 [7] was 1.27 µM. The TGI [7] was over 14.3 µM, the GI50 [8] was 0.0552 µM and the TGI [8] was over 14.3 µM. The GI50 [9] was 1.21 µM, the TGI [9] was over 14.3 µM and the GI50 [10] was 0.717 µM. For the same molecule, the TGI [10] was over 14.3 µM.
With `Clc1ccc2c(NCCNc3nc(N4CCOCC4)nc4ccccc34)ccnc2c1` the GI50 [1] was 1.61 µM, the TGI [1] was 3.63 µM and the GI50 [2] was 1.97 µM. It also gave a TGI [2] of 3.89 µM, a GI50 [3] of 1.89 µM and a TGI [3] of 3.56 µM. It also gave a GI50 [4] of 4 µM, a TGI [4] of 16.4 µM and a GI50 [5] of 0.892 µM. The TGI [5] was 13.1 µM, the GI50 [6] was 2.96 µM and the TGI [6] was 10.6 µM. For the same molecule, the GI50 [7] was 2.49 µM, the TGI [7] was 8.47 µM and the GI50 [8] was 3.82 µM. It also gave a TGI [8] of 17.2 µM, a GI50 [9] of 1.75 µM and a TGI [9] of 3.49 µM. The GI50 [10] was 2.18 µM and the TGI [10] was 5.24 µM.
In the case of `Cc1ccc(-c2nc(NCCOCCOCCN)nc(N3CCN(c4ccccn4)CC3)n2)cc1`, the GI50 [1] is reported as 13 µM, the TGI [1] is reported as 28.2 µM and the GI50 [2] is reported as 15.2 µM. For the same molecule, the TGI [2] was 33.7 µM, the GI50 [3] was 8.99 µM and the TGI [3] was 29.1 µM. For the same molecule, the GI50 [4] was 15.8 µM, the TGI [4] was 33 µM and the GI50 [5] was 9.18 µM. It also gave a TGI [5] of 24.6 µM, a GI50 [6] of 17.1 µM and a TGI [6] of 36.3 µM. For the same molecule, the GI50 [7] was 10.1 µM, the TGI [7] was 29.8 µM and the GI50 [8] was 12.7 µM. For the same molecule, the TGI [8] was 26.9 µM, the GI50 [9] was 14.7 µM and the TGI [9] was 32.4 µM. The GI50 [10] was 17.8 µM and the TGI [10] was 37.5 µM.
Work on `C=C1C(=O)OC2CC(C)C(/C=C/C(C)=O)=CCC12` (centres undefined) yielded a TGI [1] of over 100 µM, a TGI [2] of 89.4 µM and a TGI [3] of over 100 µM. The TGI [4] was over 100 µM, the TGI [5] was over 100 µM and the TGI [6] was over 100 µM. It also gave a TGI [7] of over 100 µM, a TGI [8] of over 100 µM and a TGI [9] of over 100 µM. For the same molecule, the TGI [10] was over 100 µM.
In the case of `O=c1ccc(N=Nc2ccccc2)ccc1O`, the TGI [1] is reported as over 100 µM, the TGI [2] is reported as 27.9 µM and the TGI [3] is reported as 32.1 µM. The TGI [4] was 81.1 µM, the TGI [5] was over 100 µM and the TGI [6] was 27.8 µM. For the same molecule, the TGI [7] was 19.8 µM, the TGI [8] was over 100 µM and the TGI [9] was 26 µM. It also gave a TGI [10] of 43.9 µM.
Work on `CC(=O)c1cc2c(N)c(C(=O)Nc3cccc4ccccc34)sc2nc1C` yielded a GI50 [1] of 0.891 µM, a TGI [1] of 3.46 µM and a GI50 [2] of 6.92 µM. For the same molecule, the TGI [2] was over 50 µM, the GI50 [3] was 1.74 µM and the TGI [3] was over 50 µM. The GI50 [4] was 2.9 µM, the TGI [4] was over 50 µM and the GI50 [5] was 1.23 µM. For the same molecule, the TGI [5] was over 50 µM, the GI50 [6] was 0.977 µM and the TGI [6] was over 50 µM. The GI50 [7] was 1.71 µM, the TGI [7] was over 50 µM and the GI50 [8] was 1.42 µM. It also gave a TGI [8] of over 50 µM, a GI50 [9] of 3.61 µM and a TGI [9] of over 50 µM. For the same molecule, the GI50 [10] was 2.14 µM and the TGI [10] was over 50 µM.
`Nc1cccc(-c2cc(=O)c3cc4c(cc3[nH]2)OCO4)c1` gave a TGI [1] of over 100 µM, a TGI [2] of over 100 µM and a TGI [3] of 4.25 µM. For the same molecule, the TGI [4] was over 100 µM, the TGI [5] was over 100 µM and the TGI [6] was over 47.8 µM. It also gave a TGI [7] of 21.8 µM, a TGI [8] of over 100 µM and a TGI [9] of over 100 µM. It also gave a TGI [10] of over 22.6 µM.
Molecule `COc1cc2ncn(-c3cc(OCc4ccccc4C(F)(F)F)c(C(N)=O)s3)c2cc1OC` has a GI50 [1] of 0.102 µM, a TGI [1] of 4.02 µM and a GI50 [2] of 14.5 µM. For the same molecule, the TGI [2] was over 25 µM, the GI50 [3] was 0.0889 µM and the TGI [3] was over 25 µM. The GI50 [4] was 3.69 µM, the TGI [4] was over 25 µM and the GI50 [5] was 0.137 µM. For the same molecule, the TGI [5] was over 25 µM, the GI50 [6] was 0.204 µM and the TGI [6] was over 25 µM. For the same molecule, the GI50 [7] was 0.211 µM, the TGI [7] was over 25 µM and the GI50 [8] was 0.0282 µM. The TGI [8] was over 25 µM, the GI50 [9] was 2.79 µM and the TGI [9] was over 25 µM. It also gave a GI50 [10] of 0.168 µM and a TGI [10] of over 19.9 µM.
`CC1(C)CC(O)CC(C)(C)N1O` showed a TGI [1] of over 100 µM, a TGI [2] of over 100 µM and a TGI [3] of over 100 µM. For the same molecule, the TGI [4] was over 100 µM, the TGI [5] was over 100 µM and the TGI [6] was over 100 µM. It also gave a TGI [7] of over 100 µM, a TGI [8] of over 100 µM and a TGI [9] of over 100 µM. The TGI [10] was over 100 µM.
Molecule `Nc1ncn([C@H]2CC(O)[C@@H](CO)S2)c(=O)n1` (some centres undefined) has a GI50 [1] of 11.1 µM, a TGI [1] of over 100 µM and a GI50 [2] of 88.6 µM. For the same molecule, the TGI [2] was over 100 µM, the GI50 [3] was 1.25 µM and the TGI [3] was over 100 µM. The GI50 [4] was 32.8 µM, the TGI [4] was over 100 µM and the GI50 [5] was 2.2 µM. For the same molecule, the TGI [5] was over 100 µM, the GI50 [6] was 2.79 µM and the TGI [6] was over 100 µM. The GI50 [7] was 1.71 µM, the TGI [7] was over 100 µM and the GI50 [8] was 0.382 µM. The TGI [8] was over 100 µM, the GI50 [9] was 0.266 µM and the TGI [9] was over 100 µM. The GI50 [10] was 0.42 µM and the TGI [10] was over 100 µM.
`COc1cc(N=Nc2cc(Cc3ccc(N(C)C)cc3)c(N)cc2N(C)C)c2ncccc2c1` was tested, and the GI50 [1] was 1.08 µM, the TGI [1] was 2.49 µM and the GI50 [2] was 0.621 µM. For the same molecule, the TGI [2] was 2.28 µM, the GI50 [3] was 0.0607 µM and the TGI [3] was 2.4 µM. For the same molecule, the GI50 [4] was 0.332 µM, the TGI [4] was 1.98 µM and the GI50 [5] was 0.139 µM. It also gave a TGI [5] of 1.74 µM, a GI50 [6] of 0.494 µM and a TGI [6] of 2.39 µM. The GI50 [7] was 0.195 µM, the TGI [7] was 1.99 µM and the GI50 [8] was 0.21 µM. The TGI [8] was 0.855 µM, the GI50 [9] was 0.233 µM and the TGI [9] was 1.69 µM. The GI50 [10] was 0.387 µM and the TGI [10] was 2.19 µM.
With `N#C/C(=C\c1ccc(O)cc1)C(N)=O` the TGI [1] was over 100 µM, the TGI [2] was over 100 µM and the TGI [3] was over 100 µM. For the same molecule, the TGI [4] was 97.8 µM and > 100 µM, the TGI [5] was over 100 µM and the TGI [6] was over 100 µM. The TGI [7] was over 100 µM, the TGI [8] was over 100 µM and the TGI [9] was over 100 µM. For the same molecule, the TGI [10] was over 100 µM.
